{
  "source": "patent US11198710B2",
  "about": "“Transgenic plant having herbicide resistance” (priority 2016, dated 2021)",
  "key": {"[1]": {"system": "TaQ8GTC0 protein", "test": "Glutathione conjugation activity of the TaQ8GTC0 protein to VLCFAE-inhibiting herbicides (HPLC)", "type": "biochemical, wheat (Triticum aestivum)", "description": "All the VLCFAE-inhibiting herbicides used in this example were added to the reaction mixture as acetone solutions. Conjugation reactions to the VLCFAE-inhibiting herbicides were performed in a reaction mixture (total amount: 200 μl) containing 50 μl of 100 mM potassium phosphate buffer (pH 6.8), 10 μl of 1 mM VLCFAE-inhibiting herbicide, 20 μl of 10 mM reduced glutathione (pH 7.0), 6 μl of the TaQ8GTC0 protein (378 ng in total, PBS buffer solution) and 114 μl of PBS buffer, the reaction was conducted at 30° C. for 15 minutes, the reaction product was filtered through a […], and 50 μl of the filtered solution was injected into HPLC. HPLC analysis conditions were as described below.\nApparatus: Agilent 1100 series\nColumn: CAPCELL PAK C18 AQ 4.6 mm (i.d.)×250 mm (SHISEIDO)\nMobile phase: acetonitrile/distilled water=5/95 (hold for 5 min)→(4 min)→40/60 (hold for 4 min)→(4 min)→90/10 (hold for 8 min)→(1 min)→5/95 (hold for 4 min) (each solvent containing 0.5% acetic acid)\nWhen the activity of glutathione conjugation to VLCFAE-inhibiting herbicides was analyzed, the amount of glutathione conjugates (GS conjugates) produced was determined based on the amount of VLCFAE-inhibiting herbicides decreased in the reaction solution.\nIn Example 1, the conjugation activity to cafenstrole was determined via quantification of the compound released by the glutathione conjugation of this herbicide. In addition, peaks of GS conjugate of other herbicides (i.e., metolachlor, alachlor, flufenacet, mefenacet, phentolazamide, indanofan, anilofos, and piperophos) were unknown. When analyzing the glutathione conjugation activities to these herbicides, accordingly, glutathione conjugation reactions were performed to produce GS conjugate in the modified conditions (i.e., more amount of enzyme was added or the conjugation reaction was conducted for longer time) in the beginning to produce glutathione conjugates (GS conjugates), and the peaks were identified with LC/MS."}, "[2]": {"system": "wild-type rice", "test": "Pyroxasulfone resistance test, wild-type rice, gellan gum medium, plant height", "type": "in vivo", "details": "Oryza sativa, shoot growth, 4 to 5 days, Probit method, read-out: I50", "description": "Hoagland's mix and 3 g of gellan gum were suspended in 1 liter of distilled water and thoroughly dissolved therein by heating in a microwave. A fraction of the resultant (15 ml) was injected into a tubular bottle before it was cooled (30 ml was injected into the plate). The herbicide was simultaneously added at the time of injection of the gellan gum medium into the tubular bottle or plate, followed by thorough mixing. Rice hulls were soaked in a 50-fold diluted sodium hypochlorite solution (antiformin) (Wako) for approximately 20 minutes and then thoroughly washed with water. Sterilized seeds were soaked in distilled water and allowed to stand at 27° C. for germination (for approximately 2 days). Germinating seeds were softly planted in the gellan gum medium (plate) containing 0.25 μM BS. […] Thereafter, rice seeds that were determined to have BS resistance with the use of root elongation as the indicator were transferred to gellan gum media containing pyroxasulfone (tubal bottles) at the final concentrations of 10^−8, 10^−7, 10^−6, and 10^−5M, respectively. […] These samples were grown at 27° C. under fluorescent light illumination (14 hours of a light period and 10 hours of a dark period) for 4 to 5 days, and the plant heights were then measured. […]"}, "[3]": {"system": "wild-type rapeseed plants (variety: Westar)", "test": "Rapeseed sensitivity test 2 (agar medium), wild type", "type": "in vivo, Brassica napus", "details": "0.1 μM pyroxasulfone, 22° C., 2 weeks", "excerpt": "(§1) In order to investigate the extent of pyroxasulfone resistance of the transgenic rapeseed plants comprising the […] gene introduced therein compared to wild-type plants, the growth of rapeseed was examined in an agar medium containing pyroxasulfone. Wild-type rapeseed plants (variety: Westar) and transgenic rapeseed plants comprising the TaQ8GTC0 gene introduced therein were subjected to the growth inhibitory test in an agar medium, so as to examine the resistance thereof to pyroxasulfone.\n(§2) The medium (1 liter) used in the test was composed of 1× Murashige-Skoog (MS) media (a bag), thiamin hydrochloride (3 μg/ml), nicotinic acid (5 μg/ml), pyridoxin hydrochloride (0.5 μg/ml), and 1% (w/v) sucrose. The composition was added to a 1-liter beaker, a pH was adjusted to 5.7, and the volume of the composition was adjusted to 1 liter, followed by the addition of 8 g (0.8%) of agar. Thereafter, the composition was autoclaved, the temperature was cooled to room temperature, and pyroxasulfone (acetone solution) at a given concentration was added. […]\n(§3) The sensitivity of rapeseed was examined in agar media comprising pyroxasulfone (0.1 μM, 1 μM, 10 μM, and 100 μM). […] Values in the table in FIGS. 41 and 42 are expressed as the mean±standard deviation (n=4 to 5). Values in FIG. 43 are expressed as the means (n=4 to 5)."}, "[4]": {"system": "transgenic rapeseed plants comprising the TaQ8GTC0 gene", "test": "Rapeseed sensitivity test 2 (agar medium), transgenic", "type": "in vivo, Brassica napus", "details": "10 μM pyroxasulfone, 22° C., 2 weeks", "excerpt": "as §1, §2, §3"}},
  "data": [
    {"smiles": "Cn1nc(C(F)(F)F)c(CS(=O)(=O)C2=NOC(C)(C)C2)c1OC(F)F", "note": "[Pyroxasulfone, 3-[5-(difluoromethoxy)-1-methyl-3-(trifluoromethyl)pyrazol-4-ylmethylsulfonyl]-4,5-dihydro-5,5-dimethyl-1,2-oxazole]", "values": [
      {"measurement": "Enzyme activity (glutathione conjugation)", "setting": "[1]; 378 ng TaQ8GTC0 protein, 10 μl of 1 mM herbicide in 200 μl, 30° C., 15 minutes, mean ± standard deviation", "result": "11.7 ± 3.7", "unit": "μmol/mg protein/15 min"},
      {"measurement": "GS conjugate of pyroxasulfone (M-15) produced", "setting": "[1]; out of 10 nmol pyroxasulfone added to the reaction mixture", "result": 4.81, "unit": "nmol"},
      {"measurement": "IC50", "setting": "[2]", "result": 39, "unit": "nM"},
      {"measurement": "inhibition ratio on foliage leaf development", "setting": "[3]", "result": "8.4±1.4", "unit": "%"},
      {"measurement": "inhibition ratio on plant height", "setting": "[3]", "result": "8.9±2.8", "unit": "%"},
      {"measurement": "inhibition ratio on foliage leaf development", "setting": "[4]", "result": "1.2±2.7", "unit": "%"},
      {"measurement": "inhibition ratio on plant height", "setting": "[4]", "result": "7.8±5.9", "unit": "%"}
    ]}
  ]
}
